Reference: patent publication US8058242B2, “Chimeric proteins with natriuretic activity” (The University of Queensland, priority 2004, dated 2011)
Positions of bridges follow the written chain, without caps; N, C: chain ends. Residues, ends and D or L forms follow the SMILES beside them.

System: normal rats
Test: Hemodynamic parameters in normal anesthetized rats (Example 10)

**Q.** What does the source list for `CC[C@H](C)[C@H](NC(=O)[C@H](CCCCN)NC(=O)[C@H](CO)NC(=O)[C@H](CC(=O)O)NC(=O)[C@@H](N)CO)C(=O)NCC(=O)N[C@@H](CC(N)=O)C(=O)NCC(=O)N[C@H]1CSSC[C@@H](C(=O)N[C@@H](CC(N)=O)C(=O)N[C@@H](CCCNC(=N)N)C(=O)N[C@H](C(=O)N[C@@H](CCSC)C(=O)N[C@@H](CCC(N)=O)C(=O)N[C@@H](CC(N)=O)C(=O)N2CCC[C@H]2C(=O)N2CCC[C@H]2C(=O)N[C@@H](CCCCN)C(=O)N[C@@H](CCCCN)C(=O)N[C@@H](Cc2ccccc2)C(=O)N[C@@H](CO)C(=O)NCC(=O)N[C@@H](CCC(=O)O)C(=O)O)[C@@H](C)CC)NC(=O)CNC(=O)[C@H](CC(C)C)NC(=O)CNC(=O)[C@H](CO)NC(=O)[C@H](C(C)C)NC(=O)[C@H](CO)NC(=O)CNC(=O)[C@H]([C@@H](C)CC)NC(=O)[C@H](CCCNC(=N)N)NC(=O)[C@H](CC(=O)O)NC(=O)[C@H](CC(C)C)NC(=O)[C@@H]2CCCN2C(=O)[C@H](Cc2ccccc2)NC(=O)CNC(=O)[C@H](Cc2ccccc2)NC1=O` [TNPc] (H-SDSKIGNGCFGFPLDRIGSVSGLGCNRIMQNPPKKFSGE-OH; disulfide 9-25)?
**A.** Blood Flow, mean change from control (50 pmol/kg/min, 30 min): -5.2 mL/min; Conductance, mean change from control (50 pmol/kg/min, 30 min): −1.1 ml/min/mmHg; Diastolic LVP, mean change from control (50 pmol/kg/min, 30 min): −1.4 mmHg; HCT, mean change from control (50 pmol/kg/min, 30 min): −1.7%; HR, mean change from control (50 pmol/kg/min, 30 min): −13.5 BPM; Mean BP, mean change from control (50 pmol/kg/min, 30 min): −21.0 mmHg; Urine Flow, mean change from control (50 pmol/kg/min, 30 min): 0.4 mL/h; Blood Flow, mean change from control (100 pmol/kg/min, 30 min): -7.3 mL/min; Conductance, mean change from control (100 pmol/kg/min, 30 min): −2.1 ml/min/mmHg; Diastolic LVP, mean change from control (100 pmol/kg/min, 30 min): −0.9 mmHg; HCT, mean change from control (100 pmol/kg/min, 30 min): −3.5%; HR, mean change from control (100 pmol/kg/min, 30 min): −23.6 BPM; Mean BP, mean change from control (100 pmol/kg/min, 30 min): −25.9 mmHg; Urine Flow, mean change from control (100 pmol/kg/min, 30 min): 0.9 mL/h; Blood Flow, mean change from control (Recovery): -3.0 mL/min; Conductance, mean change from control (Recovery): −1.3 ml/min/mmHg; Diastolic LVP, mean change from control (Recovery): −0.6 mmHg; HCT, mean change from control (Recovery): 3.1%; HR, mean change from control (Recovery): −17.9 BPM; Mean BP, mean change from control (Recovery): −4.1 mmHg; Urine Flow, mean change from control (Recovery): 0.6 mL/h; Blood Flow, Average drug response SED (average of the two doses): -6.2 mL/min; Conductance, Average drug response SED (average of the two doses): −1.6 ml/min/mmHg; Diastolic LVP, Average drug response SED (average of the two doses): −1.1 mmHg; HCT, Average drug response SED (average of the two doses): −2.6%; HR, Average drug response SED (average of the two doses): −18.6 BPM; Mean BP, Average drug response SED (average of the two doses): −23.5 mmHg; Urine Flow, Average drug response SED (average of the two doses): 0.7 mL/h
